In article PMC13288994, “Identification and characterization of novel chikungunya virus polymerase inhibitors” (Journal of Virology, 2026):
Read-outs that look alike come from different tables or passages of the source.

Legend:
in vitro [1] = settings: human
VSV-nLuc = assay: microbe, parasite or virus in culture; type: cell-based; settings: Vesicular stomatitis virus, Vero C1008, read-out: Antiviral potency (EC50 [µM]) VSV
HPIV3-nLuc = assay: microbe, parasite or virus in culture; type: cell-based; settings: Human respirovirus 3, Vero C1008; VeroE6 cells; read-out: Antiviral potency (EC50 [µM]) HPIV3
SARS-CoV-2-nLuc = assay: microbe, parasite or virus in culture; type: cell-based; settings: Severe acute respiratory syndrome coronavirus 2; VeroE6-TMPRSS2 cells; read-out: Antiviral potency (EC50 [µM]) SARS-CoV-2
SINV-GLuc = assay: microbe, parasite or virus in culture; type: cell-based; settings: Sindbis virus, Vero C1008; VeroE6 cells; read-out: Antiviral potency (EC50 [µM]) SINV
RSV A2-L19F = assay: microbe, parasite or virus in culture; type: cell-based; settings: human respiratory syncytial virus; Hep-2 cells; read-out: Antiviral potency (EC50 [µM]) RSV
[2] = system: CHIKV-nLuc (181/25 strain); assay: microbe, parasite or virus in culture; type: cell-based, Chikungunya virus; settings: Chikungunya virus, 384-well format, read 20 h after infection, read-out: Normalized percent inhibition in primary screen
in vitro [3] = settings: African green monkey
CHIKV 181/25 = assay: Virus yield dose-response in U-2 OS cells, CHIKV; type: cell-based, Chikungunya virus; settings: Chikungunya virus, U2OS
[4] = target: EEEV trans-replicase (P1234) (Eastern equine encephalitis virus, UniProt Q306W6); type: cell-based
[5] = target: T1, ONNV trans-replicase (P1234) (O'nyong-nyong virus, UniProt P13886); assay: Trans-replicase assay, ONNV; type: cell-based; settings: 100 µM, U-2 OS, 20 h
T1 construct: expression of the P1234 polyprotein drives replication of a reporter RNA template; expressed in transfected cells; host or cells: U-2 OS
Description: (§1) U-2 OS cells were seeded at 75,000 cells per well in 24-well plates and cultured for 24 h. Cells were then co-transfected with 250 ng of plasmid encoding template RNA and 250 ng of plasmid encoding P1234 WT ([72], [73]), using Lipofectamine LTX with PLUS reagent (ThermoFisher Scientific) following the manufacturer’s instructions. After 4 h of post-transfection, medium containing 100 µM of compounds or DMSO was added to the cells. Cells were then incubated for 20 h, lysed, and GLuc activity was quantified using the Dual-Luciferase Reporter Assay System (Promega). Luciferase activities were normalized to those of the DMSO-treated controls.

[6] = Cytotoxicity assay (PrestoBlue, 24 h) in U-2 OS cells; type: cell-based, Human; settings: human, U-2 OS cells
MAYV = assay: microbe, parasite or virus in culture; type: cell-based, Mayaro virus; settings: Mayaro virus, U2OS, read-out: EC50 virus production, MAYV
RRV = assay: microbe, parasite or virus in culture; type: cell-based, Ross River virus; settings: Ross River virus, U2OS, read-out: EC50 virus production, RRV
CHIKV-nLuc [7] = assay: microbe, parasite or virus in culture; type: cell-based, Chikungunya virus; settings: Chikungunya virus, U2OS; MOI 0.1 FFU/cell, 24 hpi, in-house synthesized compound; read-out: EC50 CHIKV-nLuc, U-2 OS
[8] = target: T2, SINV trans-replicase (P1234) (Sindbis virus, UniProt P03317); assay: Trans-replicase assay, SINV; type: cell-based; settings: 100 µM, U-2 OS, 20 h
T2 construct: expression of the P1234 polyprotein drives replication of a reporter RNA template; expressed in transfected cells; host or cells: U-2 OS
Description: as §1

VEEV-TC83-nLuc = assay: microbe, parasite or virus in culture; type: cell-based; settings: Venezuelan equine encephalitis virus, Vero C1008, read-out: Antiviral potency (EC50 [µM]) VEEV
[9] = target: T3, MAYV trans-replicase (P1234) (Mayaro virus, UniProt Q8QZ73); assay: Trans-replicase assay, MAYV; type: cell-based; settings: 100 µM, U-2 OS, 20 h
T3 construct: expression of the P1234 polyprotein drives replication of a reporter RNA template; expressed in transfected cells; host or cells: U-2 OS
Description: as §1

[10] = target: T4, SFV trans-replicase (P1234) (Semliki forest virus, UniProt P08411); assay: Trans-replicase assay, SFV; type: cell-based; settings: 100 µM, U-2 OS, 20 h
T4 construct: expression of the P1234 polyprotein drives replication of a reporter RNA template; expressed in transfected cells; host or cells: U-2 OS
Description: as §1

CHIKV = assay: Selection for viral resistance by serial passage in U-2 OS cells, whole-genome sequencing; type: cell-based, Chikungunya virus; settings: passage 1, MOI 1 FFU/cell, 16 h
[11] = target: VEEV trans-replicase (P1234) (Venezuelan equine encephalitis virus, UniProt P36328); type: cell-based
[12] = target: T5, RRV trans-replicase (P1234) (Ross river virus, UniProt P13887); assay: Trans-replicase assay, RRV; type: cell-based; settings: 100 µM, U-2 OS, 20 h
T5 construct: expression of the P1234 polyprotein drives replication of a reporter RNA template; expressed in transfected cells; host or cells: U-2 OS
Description: as §1

CHIKV-nLuc [13] = assay: microbe, parasite or virus in culture; type: cell-based, Chikungunya virus
ONNV = assay: organism not typed; type: cell-based, o'nyong-nyong virus; settings: U2OS, read-out: EC50 virus production, ONNV
CHIKV replicon = assay: microbe, parasite or virus in culture; settings: Chikungunya virus, U2OS, read-out: Antiviral potency (EC50 [µM]) CHKV replicon
[14] = target: T6, CHIKV trans-replicase (P1234) (Chikungunya virus, UniProt Q8JUX6); assay: Trans-replicase assay, CHIKV; type: cell-based; settings: 100 µM, U-2 OS, 20 h
T6 construct: expression of the P1234 polyprotein drives replication of a reporter RNA template; expressed in transfected cells; host or cells: U-2 OS
Description: as §1

[15] = target: T7, BFV trans-replicase (P1234) (Barmah forest virus, UniProt P87515); assay: Trans-replicase assay, BFV; type: cell-based; settings: 100 µM, U-2 OS, 20 h
T7 construct: expression of the P1234 polyprotein drives replication of a reporter RNA template; expressed in transfected cells; host or cells: U-2 OS
Description: as §1

SFV = assay: microbe, parasite or virus in culture; type: cell-based, Semliki Forest virus; settings: Semliki Forest virus, U2OS, read-out: EC50 virus production, SFV
CHIKV-nLuc [16] = type: cell-based, Chikungunya virus; settings: 20 µM, U-2 OS, reporter read at 24 h
SINV = assay: microbe, parasite or virus in culture; type: cell-based, Sindbis virus; settings: Sindbis virus, U2OS, read-out: EC50 virus production, SINV
[17] = Cytotoxicity assay (PrestoBlue, 24 h) in NHDF cells; type: cell-based, Human; settings: human, NHDF cells
Description: NHDF cells were seeded at 10,000 cells per well in 24-well plates and cultured for 24 h. Cells were then treated with threefold serial dilutions of compounds starting at 500 µM and incubated for 24 h. DMSO was included as a negative control for normalization. Following treatment, cells were incubated with PrestoBlue reagent (ThermoFisher Scientific) for 1 h at 37°C, and fluorescence was measured using a PerkinElmer Victor X5 multilabel plate reader. The CC50 values were determined by normalized non-linear regression with a variable slope model in Prism (GraphPad).

T6 sequence (Q8JUX6 1-535): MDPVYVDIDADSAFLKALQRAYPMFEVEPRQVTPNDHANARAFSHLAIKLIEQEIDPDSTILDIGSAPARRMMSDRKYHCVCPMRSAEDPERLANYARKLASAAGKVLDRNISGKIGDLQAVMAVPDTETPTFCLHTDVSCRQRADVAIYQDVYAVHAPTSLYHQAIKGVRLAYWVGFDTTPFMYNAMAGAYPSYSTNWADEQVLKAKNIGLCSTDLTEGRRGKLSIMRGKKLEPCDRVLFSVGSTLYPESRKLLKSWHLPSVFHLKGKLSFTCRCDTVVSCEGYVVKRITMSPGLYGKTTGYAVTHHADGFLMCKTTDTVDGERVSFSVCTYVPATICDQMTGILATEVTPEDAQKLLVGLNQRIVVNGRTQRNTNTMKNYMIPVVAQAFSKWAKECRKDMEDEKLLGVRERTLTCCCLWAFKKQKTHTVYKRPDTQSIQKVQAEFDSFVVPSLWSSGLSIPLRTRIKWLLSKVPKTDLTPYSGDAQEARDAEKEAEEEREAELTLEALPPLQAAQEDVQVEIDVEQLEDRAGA
T6 sequence (Q8JUX6 536-1333): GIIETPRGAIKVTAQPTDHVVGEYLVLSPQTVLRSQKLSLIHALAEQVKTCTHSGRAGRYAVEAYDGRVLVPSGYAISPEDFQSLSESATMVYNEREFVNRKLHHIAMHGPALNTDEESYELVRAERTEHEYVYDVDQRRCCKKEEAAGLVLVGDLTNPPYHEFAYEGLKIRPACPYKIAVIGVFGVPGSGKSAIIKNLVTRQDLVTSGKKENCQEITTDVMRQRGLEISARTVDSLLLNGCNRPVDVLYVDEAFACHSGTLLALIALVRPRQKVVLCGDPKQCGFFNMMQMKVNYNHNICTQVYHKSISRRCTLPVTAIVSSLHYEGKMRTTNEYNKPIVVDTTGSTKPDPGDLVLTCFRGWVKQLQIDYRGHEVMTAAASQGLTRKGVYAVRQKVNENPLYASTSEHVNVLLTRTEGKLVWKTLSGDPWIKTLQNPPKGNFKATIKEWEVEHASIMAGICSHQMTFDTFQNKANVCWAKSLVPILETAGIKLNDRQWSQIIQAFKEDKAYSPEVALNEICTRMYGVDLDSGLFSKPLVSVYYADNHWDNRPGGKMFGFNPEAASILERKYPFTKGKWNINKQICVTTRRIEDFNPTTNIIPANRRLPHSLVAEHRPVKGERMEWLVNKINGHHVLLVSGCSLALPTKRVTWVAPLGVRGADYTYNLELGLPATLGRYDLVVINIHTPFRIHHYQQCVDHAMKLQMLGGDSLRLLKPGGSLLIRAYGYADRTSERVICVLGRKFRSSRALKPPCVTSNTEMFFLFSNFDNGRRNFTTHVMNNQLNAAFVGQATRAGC
T6 sequence (Q8JUX6 whole entry): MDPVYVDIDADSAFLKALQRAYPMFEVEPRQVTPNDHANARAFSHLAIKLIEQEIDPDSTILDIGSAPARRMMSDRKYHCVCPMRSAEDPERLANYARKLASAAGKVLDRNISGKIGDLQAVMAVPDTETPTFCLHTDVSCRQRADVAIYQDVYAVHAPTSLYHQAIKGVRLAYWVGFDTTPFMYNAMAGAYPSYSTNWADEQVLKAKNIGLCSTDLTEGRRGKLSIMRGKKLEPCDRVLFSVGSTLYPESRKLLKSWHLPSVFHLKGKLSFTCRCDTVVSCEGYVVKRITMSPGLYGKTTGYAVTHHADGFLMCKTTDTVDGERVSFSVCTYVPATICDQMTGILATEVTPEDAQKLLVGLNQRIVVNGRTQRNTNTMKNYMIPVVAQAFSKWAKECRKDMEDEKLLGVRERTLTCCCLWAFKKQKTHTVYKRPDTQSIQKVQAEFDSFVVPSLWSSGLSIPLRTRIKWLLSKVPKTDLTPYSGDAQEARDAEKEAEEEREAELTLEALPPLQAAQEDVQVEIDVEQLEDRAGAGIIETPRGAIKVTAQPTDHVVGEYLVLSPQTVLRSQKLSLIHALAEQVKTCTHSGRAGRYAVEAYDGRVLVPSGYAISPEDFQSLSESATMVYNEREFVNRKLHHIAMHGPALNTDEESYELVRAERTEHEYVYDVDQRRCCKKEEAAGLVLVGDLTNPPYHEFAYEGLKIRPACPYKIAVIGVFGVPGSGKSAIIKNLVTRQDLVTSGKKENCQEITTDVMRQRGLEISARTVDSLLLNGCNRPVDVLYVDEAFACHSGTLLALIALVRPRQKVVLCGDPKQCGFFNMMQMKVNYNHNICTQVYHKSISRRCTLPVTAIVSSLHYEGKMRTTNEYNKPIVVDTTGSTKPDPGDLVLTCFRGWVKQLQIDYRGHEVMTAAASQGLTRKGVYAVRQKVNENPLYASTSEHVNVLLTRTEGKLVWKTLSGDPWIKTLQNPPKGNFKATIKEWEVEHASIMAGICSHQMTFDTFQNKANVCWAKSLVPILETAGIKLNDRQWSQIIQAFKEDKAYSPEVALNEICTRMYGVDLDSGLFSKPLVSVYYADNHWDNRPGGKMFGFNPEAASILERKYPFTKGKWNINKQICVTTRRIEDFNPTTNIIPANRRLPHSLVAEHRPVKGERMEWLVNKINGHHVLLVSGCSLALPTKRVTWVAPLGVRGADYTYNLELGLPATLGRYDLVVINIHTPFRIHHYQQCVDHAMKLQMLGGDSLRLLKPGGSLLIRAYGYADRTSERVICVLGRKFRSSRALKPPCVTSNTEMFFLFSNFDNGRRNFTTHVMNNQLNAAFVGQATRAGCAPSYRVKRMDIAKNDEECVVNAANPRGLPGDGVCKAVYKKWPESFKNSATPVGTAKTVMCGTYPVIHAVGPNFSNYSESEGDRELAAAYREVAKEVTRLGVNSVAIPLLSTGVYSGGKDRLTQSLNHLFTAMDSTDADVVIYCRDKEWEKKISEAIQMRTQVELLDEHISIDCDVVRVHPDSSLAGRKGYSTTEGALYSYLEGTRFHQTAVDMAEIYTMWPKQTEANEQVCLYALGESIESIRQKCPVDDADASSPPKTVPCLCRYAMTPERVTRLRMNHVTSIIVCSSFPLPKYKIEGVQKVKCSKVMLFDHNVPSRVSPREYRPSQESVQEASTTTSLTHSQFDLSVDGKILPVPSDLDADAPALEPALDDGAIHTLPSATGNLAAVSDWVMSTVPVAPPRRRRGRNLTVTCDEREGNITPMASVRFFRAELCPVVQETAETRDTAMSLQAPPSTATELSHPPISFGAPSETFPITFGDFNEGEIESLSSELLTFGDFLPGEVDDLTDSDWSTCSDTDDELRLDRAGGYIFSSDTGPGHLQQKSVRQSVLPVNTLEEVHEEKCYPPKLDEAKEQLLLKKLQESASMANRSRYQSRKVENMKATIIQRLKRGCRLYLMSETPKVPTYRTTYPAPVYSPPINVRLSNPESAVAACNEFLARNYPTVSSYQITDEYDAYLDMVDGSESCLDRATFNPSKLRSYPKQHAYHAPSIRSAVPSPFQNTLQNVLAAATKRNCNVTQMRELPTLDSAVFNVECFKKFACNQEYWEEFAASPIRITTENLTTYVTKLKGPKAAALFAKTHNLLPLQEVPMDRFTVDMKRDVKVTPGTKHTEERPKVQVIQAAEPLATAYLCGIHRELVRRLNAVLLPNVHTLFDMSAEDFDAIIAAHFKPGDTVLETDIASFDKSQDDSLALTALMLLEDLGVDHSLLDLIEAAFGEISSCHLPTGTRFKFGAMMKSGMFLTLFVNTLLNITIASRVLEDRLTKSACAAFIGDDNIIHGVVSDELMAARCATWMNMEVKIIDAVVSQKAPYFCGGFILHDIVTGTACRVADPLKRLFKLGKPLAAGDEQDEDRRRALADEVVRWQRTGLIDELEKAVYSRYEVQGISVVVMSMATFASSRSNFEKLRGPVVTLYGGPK

SMILES: Cc1ccc(NC(=O)c2oc3ccccc3c2NC(=O)c2nc(S(C)(=O)=O)ncc2Cl)cc1 [GAP-1027276]
- CC50 (in vitro [1]): 20 µM
- EC50 (VSV-nLuc): > 20 µM
- EC50 (HPIV3-nLuc): > 20 µM
- EC50 (SARS-CoV-2-nLuc): > 20 µM
- EC50 (SINV-GLuc): > 20 µM
- EC50 (RSV A2-L19F): > 10 µM
- inhibition at 5 µM [2]: 98.2%
- CC50 (in vitro [3]): > 20 µM

SMILES: CCNc1nc(C)cc(N2CCN(C(=O)c3ccccc3Cl)CC2)n1 [GAP-1358555]
- inhibition at 5 µM [2]: 85.8%

SMILES: CCNc1nc(C)cc(N2CCN(C(=O)c3ccccc3Br)CC2)n1 [GAP-1354666]
- inhibition at 5 µM [2]: 82.5%

SMILES: O=C(CN1C(=O)CNC1=O)NCc1n[nH]c2c1CCCCC2 [GAP-1173149, 2-(2,5-dioxoimidazolidin-1-yl)-N-(1,4,5,6,7,8-hexahydrocyclohepta[d]pyrazol-3-ylmethyl)acetamide]
- EC50 (CHIKV 181/25; MOI 0.1, supernatant 24 hpi titered by FFA (Fig. 5), read-out: EC50 virus production, CHIKV): 10.2 ± 0.95 µM
- EC50 (CHIKV 181/25; resistance study (Fig. 7), read-out: EC50 virus production, CHIKV WT): 9.15 ± 1.62 µM
- Effect on RNA replication (GLuc) in trans-replicase assay, EEEV [4]: effectively inhibited
- Effect on RNA replication (GLuc) in trans-replicase assay, ONNV [5]: suppressed replication
- CC50 at 24 h [6]: > 500 µM
- EC50 (MAYV): > 100 µM
- CC50 (in vitro [1]): > 100 µM
- EC50 (RRV): 10 ± 0.64 µM
- EC50 (CHIKV-nLuc [7]): 13.6 ± 0.16 µM
- EC50 (VSV-nLuc): > 100 µM
- Effect on RNA replication (GLuc) in trans-replicase assay, SINV [8]: no significant effect
- EC50 (HPIV3-nLuc): > 100 µM
- EC50 (VEEV-TC83-nLuc): 52.3 µM
- Effect on RNA replication (GLuc) in trans-replicase assay, MAYV [9]: no significant effect
- Effect on RNA replication (GLuc) in trans-replicase assay, SFV [10]: no significant effect
- Reduction of virus titers at P1 compared with DMSO-treated controls (CHIKV): 1 log
- Effect on RNA replication (GLuc) in trans-replicase assay, VEEV [11]: did not show significant VEEV inhibition
- Effect on RNA replication (GLuc) in trans-replicase assay, RRV [12]: suppressed replication
- EC50 (CHIKV-nLuc [13]; Chikungunya virus, NHDF, MOI 0.1 FFU/cell, 24 hpi, in-house synthesized compound): 11.6 µM
- selectivity index (SI = CC50/EC50) (CHIKV-nLuc [13]; NHDF cells): > 43
- EC50 (ONNV): 5.22 ± 1.11 µM
- EC50 (CHIKV replicon): 5.3 µM
- Effect on RNA replication (GLuc) in trans-replicase assay, CHIKV [14]: suppressed replication
- EC50 (SARS-CoV-2-nLuc): > 100 µM
- Effect on RNA replication (GLuc) in trans-replicase assay, BFV [15]: effectively inhibited
- EC50 (SFV): > 100 µM
- Time-of-addition profile (stage of replication targeted) (CHIKV-nLuc [16]): act on a stage after viral entry
- EC50 (SINV-GLuc): > 100 µM
- EC50 (SINV): > 100 µM
- EC50 (RSV A2-L19F): > 10 µM
- inhibition at 5 µM [2]: 88.7%
- CC50 (in vitro [3]): > 100 µM
- CC50 at 24 h [17]: > 500 µM

SMILES: CCNc1nc(C)cc(N2CCN(C(=O)c3cc(Cl)ccc3OC)CC2)n1 [GAP-1350926]
- inhibition at 5 µM [2]: 82.1%

SMILES: CCNc1cc(C)nc(N2CCN(C(=O)c3cccc4ccccc34)CC2)n1 [GAP-1066658]
- CC50 (in vitro [1]): 61.5 µM
- EC50 (VSV-nLuc): 60.9 µM
- EC50 (HPIV3-nLuc): ~100 µM
- EC50 (VEEV-TC83-nLuc): 75.8 µM
- EC50 (CHIKV replicon): 0.61 µM
- EC50 (SARS-CoV-2-nLuc): ~100 µM
- EC50 (SINV-GLuc): > 100 µM
- EC50 (RSV A2-L19F): > 100 µM
- inhibition at 5 µM [2]: 95.4%
- CC50 (in vitro [3]): 88.5 µM
